Laboratory results published in ChEMBL document CHEMBL4507315 (2021).

Assays:
[1] = target: 5-hydroxytryptamine receptor 2C (Homo sapiens) (UniProt P28335); details: Compound concentration 10.0 uM
[2] = target: Proto-oncogene tyrosine-protein kinase ROS (Homo sapiens) (UniProt P08922); details: Compound concentration 100.0 nM
[3] = target: Death-associated protein kinase 1 (Homo sapiens) (UniProt P53355); details: Compound concentration 100.0 nM
[4] = target: Serine/threonine-protein kinase 17B (Homo sapiens) (UniProt O94768); details: Compound concentration 100.0 nM
Serine/threonine-protein kinase 17B (Homo sapiens), sequence (O94768 whole entry): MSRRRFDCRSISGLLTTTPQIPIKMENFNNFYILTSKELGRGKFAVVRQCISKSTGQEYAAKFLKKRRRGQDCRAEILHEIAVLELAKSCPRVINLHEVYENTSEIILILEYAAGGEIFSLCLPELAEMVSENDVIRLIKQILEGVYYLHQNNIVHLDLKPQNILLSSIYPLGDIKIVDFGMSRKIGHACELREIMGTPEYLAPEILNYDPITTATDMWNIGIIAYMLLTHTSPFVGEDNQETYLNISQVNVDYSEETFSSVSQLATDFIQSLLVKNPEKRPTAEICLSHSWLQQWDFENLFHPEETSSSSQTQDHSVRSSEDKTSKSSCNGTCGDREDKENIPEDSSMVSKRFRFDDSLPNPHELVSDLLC

[5] = target: Sigma non-opioid intracellular receptor 1 (Homo sapiens) (UniProt Q99720); details: Compound concentration 10.0 uM
[6] = target: Cyclin-dependent kinase-like 2 (Homo sapiens) (UniProt Q92772); details: Compound concentration 100.0 nM
Cyclin-dependent kinase-like 2 (Homo sapiens), sequence (Q92772 whole entry, canonical isoform): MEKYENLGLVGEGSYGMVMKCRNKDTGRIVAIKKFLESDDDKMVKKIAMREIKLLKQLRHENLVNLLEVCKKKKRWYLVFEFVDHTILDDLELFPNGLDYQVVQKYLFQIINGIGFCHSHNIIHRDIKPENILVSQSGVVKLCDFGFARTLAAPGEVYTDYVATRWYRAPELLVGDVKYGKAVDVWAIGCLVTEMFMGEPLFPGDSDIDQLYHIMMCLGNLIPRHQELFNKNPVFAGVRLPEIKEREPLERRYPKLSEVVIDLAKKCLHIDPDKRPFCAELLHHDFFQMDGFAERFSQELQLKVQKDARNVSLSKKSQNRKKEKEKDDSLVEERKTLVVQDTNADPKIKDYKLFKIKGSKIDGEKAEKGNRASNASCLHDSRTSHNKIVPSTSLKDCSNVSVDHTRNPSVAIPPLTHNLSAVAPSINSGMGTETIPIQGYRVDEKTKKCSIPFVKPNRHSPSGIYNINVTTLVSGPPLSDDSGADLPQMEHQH

[7] = target: Phosphatidylinositol 4,5-bisphosphate 3-kinase catalytic subunit beta isoform (Homo sapiens) (UniProt P42338); details: Compound concentration 100.0 nM
[8] = target: Serine/threonine-protein kinase pim-2 (Homo sapiens) (UniProt Q9P1W9); details: Compound concentration 100.0 nM
Serine/threonine-protein kinase pim-2 (Homo sapiens), sequence (Q9P1W9 whole entry, looked up): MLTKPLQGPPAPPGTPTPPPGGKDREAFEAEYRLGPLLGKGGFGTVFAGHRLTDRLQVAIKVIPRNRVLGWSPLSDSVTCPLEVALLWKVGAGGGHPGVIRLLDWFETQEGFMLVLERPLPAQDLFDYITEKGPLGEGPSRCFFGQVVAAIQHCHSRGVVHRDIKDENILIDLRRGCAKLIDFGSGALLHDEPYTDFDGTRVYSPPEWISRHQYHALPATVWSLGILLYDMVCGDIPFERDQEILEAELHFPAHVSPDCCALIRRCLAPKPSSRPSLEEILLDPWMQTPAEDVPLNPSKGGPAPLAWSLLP

[9] = target: Mitogen-activated protein kinase 1 (Homo sapiens) (UniProt P28482); details: Compound concentration 100.0 nM
[10] = target: Testis-specific serine/threonine-protein kinase 1 (Homo sapiens) (UniProt Q9BXA7); details: Compound concentration 100.0 nM
[11] = target: AP2-associated protein kinase 1 (Homo sapiens) (UniProt Q2M2I8); details: Compound concentration 100.0 nM
[12] = tested on: Epidermal growth factor receptor (Homo sapiens), P00533 [UNDEFINED MUTATION]; details: Compound concentration 100.0 nM
Epidermal growth factor receptor (Homo sapiens), P00533 [UNDEFINED MUTATION], sequence (P00533 whole entry, looked up, stated change not applied): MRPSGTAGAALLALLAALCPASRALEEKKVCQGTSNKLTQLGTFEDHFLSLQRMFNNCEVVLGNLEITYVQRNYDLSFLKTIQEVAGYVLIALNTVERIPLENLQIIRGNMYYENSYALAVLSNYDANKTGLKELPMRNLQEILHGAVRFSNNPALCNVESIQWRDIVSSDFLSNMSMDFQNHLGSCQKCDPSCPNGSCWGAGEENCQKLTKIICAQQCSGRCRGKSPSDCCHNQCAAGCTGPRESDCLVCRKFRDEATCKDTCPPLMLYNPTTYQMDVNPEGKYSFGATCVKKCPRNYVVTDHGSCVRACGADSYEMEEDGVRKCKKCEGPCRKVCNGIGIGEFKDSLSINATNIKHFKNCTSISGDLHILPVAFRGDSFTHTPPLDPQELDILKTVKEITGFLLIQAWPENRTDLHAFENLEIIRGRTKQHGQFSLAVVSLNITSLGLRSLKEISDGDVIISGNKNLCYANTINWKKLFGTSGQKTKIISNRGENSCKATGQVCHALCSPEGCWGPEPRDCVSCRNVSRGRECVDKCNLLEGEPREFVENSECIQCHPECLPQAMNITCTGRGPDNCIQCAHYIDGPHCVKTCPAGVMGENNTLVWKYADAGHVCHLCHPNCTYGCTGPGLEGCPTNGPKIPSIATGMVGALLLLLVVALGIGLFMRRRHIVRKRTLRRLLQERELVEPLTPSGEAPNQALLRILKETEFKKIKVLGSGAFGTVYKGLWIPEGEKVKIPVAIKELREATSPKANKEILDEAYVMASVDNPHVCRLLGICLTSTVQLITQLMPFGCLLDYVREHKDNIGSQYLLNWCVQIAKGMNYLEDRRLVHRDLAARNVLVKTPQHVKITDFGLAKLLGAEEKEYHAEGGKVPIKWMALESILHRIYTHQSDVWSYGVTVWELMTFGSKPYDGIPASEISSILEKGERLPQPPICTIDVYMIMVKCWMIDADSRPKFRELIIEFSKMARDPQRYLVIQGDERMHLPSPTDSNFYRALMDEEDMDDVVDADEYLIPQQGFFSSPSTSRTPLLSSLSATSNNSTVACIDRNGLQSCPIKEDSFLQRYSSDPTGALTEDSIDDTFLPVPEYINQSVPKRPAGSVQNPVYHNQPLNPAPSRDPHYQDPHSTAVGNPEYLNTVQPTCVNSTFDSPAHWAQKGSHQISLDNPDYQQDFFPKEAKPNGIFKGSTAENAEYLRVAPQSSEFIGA

[13] = target: Delta-type opioid receptor (Homo sapiens) (UniProt P41143); details: Compound concentration 10.0 uM
[14] = tested on: Phosphatidylinositol 4,5-bisphosphate 3-kinase catalytic subunit alpha isoform (Homo sapiens), P42336 [E542K]; details: Compound concentration 100.0 nM
[15] = target: Serine/threonine-protein kinase VRK2 (Homo sapiens) (UniProt Q86Y07); details: Compound concentration 100.0 nM
[16] = target: Serine/threonine-protein kinase ULK3 (Homo sapiens) (UniProt Q6PHR2); details: Compound concentration 100.0 nM
[17] = target: Interleukin-1 receptor-associated kinase 1 (Homo sapiens) (UniProt P51617); details: Compound concentration 100.0 nM
[18] = target: Serine/threonine-protein kinase DCLK2 (Homo sapiens) (UniProt Q8N568); details: Compound concentration 100.0 nM
[19] = target: D(1B) dopamine receptor (Homo sapiens) (UniProt P21918); details: Compound concentration 10.0 uM
[20] = target: Phosphatidylinositol 4-phosphate 5-kinase type-1 alpha (Homo sapiens) (UniProt Q99755); details: Compound concentration 100.0 nM
[21] = tested on: Receptor-type tyrosine-protein kinase FLT3 (Homo sapiens), P36888 [UNDEFINED MUTATION]; details: Compound concentration 100.0 nM
Receptor-type tyrosine-protein kinase FLT3 (Homo sapiens), P36888 [UNDEFINED MUTATION], sequence (P36888 whole entry, looked up, change not shown): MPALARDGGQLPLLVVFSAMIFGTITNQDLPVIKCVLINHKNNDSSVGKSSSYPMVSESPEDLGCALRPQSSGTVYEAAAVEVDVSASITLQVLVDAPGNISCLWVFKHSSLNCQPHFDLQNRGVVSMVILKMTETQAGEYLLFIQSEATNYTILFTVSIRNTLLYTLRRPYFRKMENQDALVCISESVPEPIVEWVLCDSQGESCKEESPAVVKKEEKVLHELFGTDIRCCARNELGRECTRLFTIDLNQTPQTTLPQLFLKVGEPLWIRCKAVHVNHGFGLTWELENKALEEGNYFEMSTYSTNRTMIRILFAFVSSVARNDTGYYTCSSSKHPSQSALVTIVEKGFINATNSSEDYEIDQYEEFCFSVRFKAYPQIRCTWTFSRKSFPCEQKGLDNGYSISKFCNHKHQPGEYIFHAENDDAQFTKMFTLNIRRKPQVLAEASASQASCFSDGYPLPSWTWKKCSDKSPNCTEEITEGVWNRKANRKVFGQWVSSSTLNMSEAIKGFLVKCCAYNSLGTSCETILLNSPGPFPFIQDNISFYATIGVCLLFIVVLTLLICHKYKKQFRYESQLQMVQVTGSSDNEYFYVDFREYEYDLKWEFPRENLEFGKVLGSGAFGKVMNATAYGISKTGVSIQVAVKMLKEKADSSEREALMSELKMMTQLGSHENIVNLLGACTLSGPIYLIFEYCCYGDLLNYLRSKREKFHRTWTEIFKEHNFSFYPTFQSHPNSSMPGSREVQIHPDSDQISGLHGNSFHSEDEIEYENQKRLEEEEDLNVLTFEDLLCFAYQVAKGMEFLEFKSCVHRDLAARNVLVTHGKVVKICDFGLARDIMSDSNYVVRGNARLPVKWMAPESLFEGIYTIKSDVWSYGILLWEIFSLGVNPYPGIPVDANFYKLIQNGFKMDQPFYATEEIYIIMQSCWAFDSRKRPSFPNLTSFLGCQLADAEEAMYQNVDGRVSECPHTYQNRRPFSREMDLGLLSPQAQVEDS

[22] = target: Serine/threonine-protein kinase tousled-like 2 (Homo sapiens) (UniProt Q86UE8); details: Compound concentration 100.0 nM
Serine/threonine-protein kinase tousled-like 2 (Homo sapiens), sequence (Q86UE8 whole entry, looked up): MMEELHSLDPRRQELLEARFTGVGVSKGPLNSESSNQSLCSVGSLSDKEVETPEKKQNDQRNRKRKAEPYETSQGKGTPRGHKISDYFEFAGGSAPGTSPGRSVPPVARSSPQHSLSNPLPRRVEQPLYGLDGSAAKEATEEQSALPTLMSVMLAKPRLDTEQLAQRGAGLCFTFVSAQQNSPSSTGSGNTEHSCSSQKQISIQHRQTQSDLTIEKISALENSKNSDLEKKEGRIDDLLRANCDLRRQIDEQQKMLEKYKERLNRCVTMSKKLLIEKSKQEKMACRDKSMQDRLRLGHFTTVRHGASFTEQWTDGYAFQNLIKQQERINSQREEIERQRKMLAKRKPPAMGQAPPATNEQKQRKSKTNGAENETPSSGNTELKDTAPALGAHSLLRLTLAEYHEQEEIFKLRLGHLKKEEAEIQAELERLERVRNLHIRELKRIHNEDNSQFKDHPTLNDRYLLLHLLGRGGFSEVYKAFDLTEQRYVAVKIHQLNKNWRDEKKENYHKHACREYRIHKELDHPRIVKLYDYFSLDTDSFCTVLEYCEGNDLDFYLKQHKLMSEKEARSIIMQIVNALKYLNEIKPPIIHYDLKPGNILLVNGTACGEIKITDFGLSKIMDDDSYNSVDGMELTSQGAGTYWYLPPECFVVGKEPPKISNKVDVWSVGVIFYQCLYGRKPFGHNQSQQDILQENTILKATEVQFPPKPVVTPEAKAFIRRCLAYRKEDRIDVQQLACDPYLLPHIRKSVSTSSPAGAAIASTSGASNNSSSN

[23] = tested on: Epidermal growth factor receptor (Homo sapiens), P00533 [UNDEFINED MUTATION]; details: Compound concentration 100.0 nM; remark: listed apart in the source
[24] = target: Activin receptor type-1B (Homo sapiens) (UniProt P36896); details: Compound concentration 100.0 nM
[25] = target: Protein-tyrosine kinase 2-beta (Homo sapiens) (UniProt Q14289); details: Compound concentration 100.0 nM
[26] = target: Homeodomain-interacting protein kinase 3 (Homo sapiens) (UniProt Q9H422); details: Compound concentration 100.0 nM
[27] = tested on: Tyrosine-protein kinase ABL1 (Homo sapiens), P00519 [F317I]; details: Compound concentration 100.0 nM
[28] = target: Phosphatidylinositol 4,5-bisphosphate 3-kinase catalytic subunit delta isoform (Homo sapiens) (UniProt O00329); details: Compound concentration 100.0 nM
[29] = target: STE20-like serine/threonine-protein kinase (Homo sapiens) (UniProt Q9H2G2); details: Compound concentration 100.0 nM
[30] = target: Dual specificity protein kinase TTK (Homo sapiens) (UniProt P33981); details: Compound concentration 100.0 nM
[31] = target: Mitogen-activated protein kinase kinase kinase kinase 1 (Homo sapiens) (UniProt Q92918); details: Compound concentration 100.0 nM
[32] = target: Serine/threonine-protein kinase 38-like (Homo sapiens) (UniProt Q9Y2H1); details: Compound concentration 100.0 nM
[33] = target: Mitogen-activated protein kinase kinase kinase 20 (Homo sapiens, UniProt Q9NYL2); assay: NanoBRET (MAP3K20)
[34] = target: ALK tyrosine kinase receptor (Homo sapiens) (UniProt Q9UM73); details: Compound concentration 100.0 nM
[35] = target: Protein kinase C epsilon type (Homo sapiens) (UniProt Q02156); details: Compound concentration 100.0 nM
[36] = target: Peripheral plasma membrane protein CASK (Homo sapiens) (UniProt O14936); details: Compound concentration 100.0 nM
Peripheral plasma membrane protein CASK (Homo sapiens), sequence (O14936 whole entry): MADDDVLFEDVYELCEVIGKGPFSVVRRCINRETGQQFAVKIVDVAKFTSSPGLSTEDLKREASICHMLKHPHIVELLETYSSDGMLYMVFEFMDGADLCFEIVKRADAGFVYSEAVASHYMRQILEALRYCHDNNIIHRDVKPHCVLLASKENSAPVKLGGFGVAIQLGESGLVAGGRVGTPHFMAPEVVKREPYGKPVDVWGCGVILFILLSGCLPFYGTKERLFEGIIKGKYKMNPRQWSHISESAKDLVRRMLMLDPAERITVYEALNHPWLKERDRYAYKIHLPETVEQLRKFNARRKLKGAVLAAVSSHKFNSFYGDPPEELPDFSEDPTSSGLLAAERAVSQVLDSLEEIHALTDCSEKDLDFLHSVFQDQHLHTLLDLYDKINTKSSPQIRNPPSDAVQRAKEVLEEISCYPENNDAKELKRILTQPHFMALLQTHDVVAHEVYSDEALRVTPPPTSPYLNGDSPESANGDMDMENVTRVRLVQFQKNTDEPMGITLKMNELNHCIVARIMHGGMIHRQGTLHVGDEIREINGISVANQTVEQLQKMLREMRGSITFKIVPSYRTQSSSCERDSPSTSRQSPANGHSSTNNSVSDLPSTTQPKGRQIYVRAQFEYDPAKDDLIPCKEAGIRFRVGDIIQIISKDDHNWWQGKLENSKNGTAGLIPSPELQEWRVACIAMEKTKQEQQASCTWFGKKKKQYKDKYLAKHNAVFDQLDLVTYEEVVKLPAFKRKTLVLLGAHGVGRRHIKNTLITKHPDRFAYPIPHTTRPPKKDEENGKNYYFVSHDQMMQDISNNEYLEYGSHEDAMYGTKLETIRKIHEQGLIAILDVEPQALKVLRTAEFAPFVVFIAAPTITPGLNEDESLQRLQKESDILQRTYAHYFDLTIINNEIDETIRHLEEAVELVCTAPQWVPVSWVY

[37] = target: Ribosomal protein S6 kinase alpha-2 (Homo sapiens) (UniProt Q15349); details: Compound concentration 100.0 nM
[38] = target: Mitogen-activated protein kinase kinase kinase 12 (Homo sapiens) (UniProt Q12852); details: Compound concentration 100.0 nM
[39] = target: Mitogen-activated protein kinase 9 (Homo sapiens) (UniProt P45984); details: Compound concentration 100.0 nM
[40] = target: Serine/threonine-protein kinase RIO1 (Homo sapiens) (UniProt Q9BRS2); details: Compound concentration 100.0 nM
[41] = target: Tyrosine-protein kinase SYK (Homo sapiens) (UniProt P43405); details: Compound concentration 100.0 nM
[42] = target: Ribosomal protein S6 kinase alpha-1 (Homo sapiens) (UniProt Q15418); details: Compound concentration 100.0 nM
[43] = target: Serine/threonine-protein kinase RIO3 (Homo sapiens) (UniProt O14730); details: Compound concentration 100.0 nM
[44] = target: Proto-oncogene tyrosine-protein kinase receptor Ret (Homo sapiens) (UniProt P07949); details: Compound concentration 100.0 nM
[45] = target: Mitogen-activated protein kinase 12 (Homo sapiens) (UniProt P53778); details: Compound concentration 100.0 nM

Nc1c(C(=O)NCc2ccc(C(=O)NCCCC3CCCCC3)cc2)cnn1-c1ccccc1 [SR-318]
active: residual activity [32] 44%
inactive: inhibition [1] 10% | residual activity [2] 83% | residual activity [3] 92% | residual activity [4] 94% | inhibition [5] 45.1% | residual activity [6] 93% | residual activity [7] 100% | residual activity [8] 100% | residual activity [9] 100% | residual activity [10] 81% | residual activity [11] 100% | residual activity [12] 98% | inhibition [13] 24.1% | residual activity [14] 100% | residual activity [15] 92% | residual activity [16] 100% | residual activity [17] 86% | residual activity [18] 100% | inhibition [19] 28.4% | residual activity [20] 100% | residual activity [21] 100% | residual activity [22] 100% | residual activity [23] 100% | residual activity [24] 100% | residual activity [25] 99% | residual activity [26] 100% | residual activity [27] 92% | residual activity [28] 94% | residual activity [29] 80% | residual activity [30] 100% | residual activity [31] 99% | residual activity [34] 100% | residual activity [35] 100% | residual activity [36] 78% | residual activity [37] 100% | residual activity [38] 100% | residual activity [39] 100% | residual activity [40] 95% | residual activity [41] 74% | residual activity [42] 92% | residual activity [43] 100% | residual activity [44] 89% | residual activity [45] 100%
0.91 µM (not active): IC50 [33]

O=C(NCCCC1CCCCC1)c1ccc(CNC(=O)c2cnn(-c3ccccc3)c2C(F)(F)F)cc1 [SR-321]
5.8 µM (not active): IC50 [33]
active: residual activity [32] 20%
inactive: inhibition [1] 6.21% | residual activity [2] 100% | residual activity [3] 100% | residual activity [4] 100% | inhibition [5] 20.1% | residual activity [6] 100% | residual activity [7] 100% | residual activity [8] 100% | residual activity [9] 93% | residual activity [10] 94% | residual activity [11] 100% | residual activity [12] 100% | inhibition [13] 12.9% | residual activity [14] 74% | residual activity [15] 100% | residual activity [16] 100% | residual activity [17] 100% | residual activity [18] 100% | inhibition [19] 23.2% | residual activity [20] 100% | residual activity [21] 100% | residual activity [22] 100% | residual activity [23] 100% | residual activity [24] 100% | residual activity [25] 93% | residual activity [26] 88% | residual activity [27] 100% | residual activity [28] 100% | residual activity [29] 100% | residual activity [30] 91% | residual activity [31] 100% | residual activity [34] 100% | residual activity [35] 88% | residual activity [36] 100% | residual activity [37] 100% | residual activity [38] 100% | residual activity [39] 85% | residual activity [40] 100% | residual activity [41] 100% | residual activity [42] 100% | residual activity [43] 100% | residual activity [44] 89% | residual activity [45] 100%
